Experimental findings from patent publication US20230159463A1, “BENZONITRIC HETEROCYCLIC COMPOUND, PREPARATION METHOD THEREFOR AND USE THEREOF” (SHANGHAI ZHONGZE THERAPEUTICS, CO. LTD., priority 2020, published 2023) are described below.

The IC50 is the point on the concentration scale where inhibition reaches its midpoint. Low readings indicate higher potency, high ones lower potency. One may read the pIC50 as −log10 of the IC50, conventionally taken in molar units.

pIC50: −log10 of the molar value. Like-named read-outs stand apart in the source and are kept apart here. Bounds are passed on as bounds.

One series addresses T1, HDAC6 (Homo sapiens, UniProt Q9UBN7).
T1 construct: purchased Biovision Company
T1 sequence (Q9UBN7 1-1215): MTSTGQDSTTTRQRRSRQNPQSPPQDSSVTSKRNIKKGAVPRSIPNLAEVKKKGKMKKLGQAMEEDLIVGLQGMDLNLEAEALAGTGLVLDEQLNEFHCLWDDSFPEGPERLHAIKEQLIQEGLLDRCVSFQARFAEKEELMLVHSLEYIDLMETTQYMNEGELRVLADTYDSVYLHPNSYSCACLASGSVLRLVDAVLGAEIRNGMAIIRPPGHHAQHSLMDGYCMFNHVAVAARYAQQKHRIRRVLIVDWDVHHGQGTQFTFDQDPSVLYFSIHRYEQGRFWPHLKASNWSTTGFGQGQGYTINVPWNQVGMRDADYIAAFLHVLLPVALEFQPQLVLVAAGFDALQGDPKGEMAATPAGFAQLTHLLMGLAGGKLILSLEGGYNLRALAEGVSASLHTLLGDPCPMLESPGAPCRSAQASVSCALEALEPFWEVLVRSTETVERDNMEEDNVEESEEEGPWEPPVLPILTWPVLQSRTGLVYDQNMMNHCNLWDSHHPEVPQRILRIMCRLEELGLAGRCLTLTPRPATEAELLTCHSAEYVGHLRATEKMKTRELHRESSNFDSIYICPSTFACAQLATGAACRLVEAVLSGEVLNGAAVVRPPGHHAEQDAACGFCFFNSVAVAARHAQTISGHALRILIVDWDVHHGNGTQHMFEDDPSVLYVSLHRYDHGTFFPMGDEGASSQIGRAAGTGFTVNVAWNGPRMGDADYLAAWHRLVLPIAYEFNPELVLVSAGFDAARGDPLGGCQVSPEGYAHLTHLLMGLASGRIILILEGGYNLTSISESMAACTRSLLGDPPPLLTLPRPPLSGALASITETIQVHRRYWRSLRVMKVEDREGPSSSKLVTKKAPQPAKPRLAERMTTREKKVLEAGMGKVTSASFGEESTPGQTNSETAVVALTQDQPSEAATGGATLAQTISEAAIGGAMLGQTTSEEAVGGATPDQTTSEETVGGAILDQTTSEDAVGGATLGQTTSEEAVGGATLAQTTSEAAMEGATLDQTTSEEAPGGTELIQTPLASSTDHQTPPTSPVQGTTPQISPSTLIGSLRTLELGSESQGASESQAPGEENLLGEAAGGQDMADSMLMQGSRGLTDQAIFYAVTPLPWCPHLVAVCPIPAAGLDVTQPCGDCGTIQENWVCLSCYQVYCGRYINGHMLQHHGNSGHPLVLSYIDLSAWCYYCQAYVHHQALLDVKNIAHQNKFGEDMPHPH
Briefly: HDAC6 inhibitor screening kit (Biovision), in vitro inhibitory activity. Format: biochemical. How it is done: (§1) The in vitro inhibitory activity of histone deacetylase of the compound was determined according to the instructions of HDAC1 and HDAC6 inhibitor screening kit (Biovision Company).

The target of the next series is T2, HDAC1 (Homo sapiens, UniProt Q13547).
T2 construct: purchased Biovision Company
T2 sequence (Q13547 whole entry): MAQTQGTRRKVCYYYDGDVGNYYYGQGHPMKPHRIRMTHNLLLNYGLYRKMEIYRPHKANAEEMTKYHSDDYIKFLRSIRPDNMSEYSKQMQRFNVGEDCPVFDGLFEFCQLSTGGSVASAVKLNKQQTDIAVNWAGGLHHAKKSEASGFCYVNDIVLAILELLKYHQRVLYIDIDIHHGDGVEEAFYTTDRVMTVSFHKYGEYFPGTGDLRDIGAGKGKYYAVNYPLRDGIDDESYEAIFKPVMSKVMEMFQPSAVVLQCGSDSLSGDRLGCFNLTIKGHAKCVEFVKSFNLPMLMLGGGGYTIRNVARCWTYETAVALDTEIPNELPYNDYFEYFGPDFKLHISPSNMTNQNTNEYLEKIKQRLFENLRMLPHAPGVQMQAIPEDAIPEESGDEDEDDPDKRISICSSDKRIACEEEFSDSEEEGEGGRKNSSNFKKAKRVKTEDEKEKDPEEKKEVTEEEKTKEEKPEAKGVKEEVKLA
Briefly: HDAC1 inhibitor screening kit (Biovision), in vitro inhibitory activity. Format: biochemical. The procedure: as §1

The test system of a further series is glioma cell line U-87MG. The experiment in a line: In vitro anti-proliferative activity (CCK8), U-87MG. The class given is cell-based. The conditions noted are these: Homo sapiens, read-out: U-87MG (Glioma) Inh % in 10 μM.
Series [1] has as its system myeloma cell line RPMI 8226. Briefly: In vitro anti-proliferative activity (CCK8), RPMI 8226. The conditions noted are these: Homo sapiens, 48 hours, class symbol, read-out: RPMI 8226 (Myeloma) Inh % in 10 μM. Format: cell-based. How it is done: (§2) The specific results are shown in the table (unit: […] Test method: The tumor cells in the logarithmic growth phase with good growth status were inoculated into 96-well plates at 4×10^3 per well, and 8 duplicate wells were set up in each group. The cells were cultured in a cell incubator, after the cells adhered to the wall, […]. […] The experiment was repeated 3 times, and the average of the experimental results was taken as the final experimental result, and the inhibition rate was calculated.

Series [2] deals with human liver cancer cell line HepG2. Briefly: In vitro anti-proliferative activity (CCK8), HepG2. The class given is cell-based. The conditions noted are these: read-out: Hep G2 (Liver cancer) Inh % in 10 μM. How it is done: as §2
In series [3] the test system is human lung cancer cell line A549. The experiment in a line: In vitro anti-proliferative activity (CCK8), A549. The class given is cell-based. The conditions noted are these: read-out: A549 (Lung cancer) Inh % in 10 μM. The procedure: as §2
Series [4] deals with MRC-5 human normal embryo lung fibroblast. The experiment in a line: In vitro anti-proliferative activity (CCK8), MRC-5 normal cells. Format: cell-based. The conditions noted are these: read-out: MRC-5 (Normal cell line) Inh % in 10 μM.
For series [5], the system named is mixed cells and primary neurons in rat cortex. The experiment in a line: Protective effect on HCA-induced neuronal cell damage. Format: cell-based. The conditions noted are these: HCA 5 mmol/L; test concentration 0.1, 1.0 and 10.0 μM; compared with Tubastatin A at the same dose.
The next series deals with T3, hERG potassium channels (Homo sapiens, UniProt Q12809).
T3 construct: expressed in transfected cells
T3 sequence (Q12809 whole entry): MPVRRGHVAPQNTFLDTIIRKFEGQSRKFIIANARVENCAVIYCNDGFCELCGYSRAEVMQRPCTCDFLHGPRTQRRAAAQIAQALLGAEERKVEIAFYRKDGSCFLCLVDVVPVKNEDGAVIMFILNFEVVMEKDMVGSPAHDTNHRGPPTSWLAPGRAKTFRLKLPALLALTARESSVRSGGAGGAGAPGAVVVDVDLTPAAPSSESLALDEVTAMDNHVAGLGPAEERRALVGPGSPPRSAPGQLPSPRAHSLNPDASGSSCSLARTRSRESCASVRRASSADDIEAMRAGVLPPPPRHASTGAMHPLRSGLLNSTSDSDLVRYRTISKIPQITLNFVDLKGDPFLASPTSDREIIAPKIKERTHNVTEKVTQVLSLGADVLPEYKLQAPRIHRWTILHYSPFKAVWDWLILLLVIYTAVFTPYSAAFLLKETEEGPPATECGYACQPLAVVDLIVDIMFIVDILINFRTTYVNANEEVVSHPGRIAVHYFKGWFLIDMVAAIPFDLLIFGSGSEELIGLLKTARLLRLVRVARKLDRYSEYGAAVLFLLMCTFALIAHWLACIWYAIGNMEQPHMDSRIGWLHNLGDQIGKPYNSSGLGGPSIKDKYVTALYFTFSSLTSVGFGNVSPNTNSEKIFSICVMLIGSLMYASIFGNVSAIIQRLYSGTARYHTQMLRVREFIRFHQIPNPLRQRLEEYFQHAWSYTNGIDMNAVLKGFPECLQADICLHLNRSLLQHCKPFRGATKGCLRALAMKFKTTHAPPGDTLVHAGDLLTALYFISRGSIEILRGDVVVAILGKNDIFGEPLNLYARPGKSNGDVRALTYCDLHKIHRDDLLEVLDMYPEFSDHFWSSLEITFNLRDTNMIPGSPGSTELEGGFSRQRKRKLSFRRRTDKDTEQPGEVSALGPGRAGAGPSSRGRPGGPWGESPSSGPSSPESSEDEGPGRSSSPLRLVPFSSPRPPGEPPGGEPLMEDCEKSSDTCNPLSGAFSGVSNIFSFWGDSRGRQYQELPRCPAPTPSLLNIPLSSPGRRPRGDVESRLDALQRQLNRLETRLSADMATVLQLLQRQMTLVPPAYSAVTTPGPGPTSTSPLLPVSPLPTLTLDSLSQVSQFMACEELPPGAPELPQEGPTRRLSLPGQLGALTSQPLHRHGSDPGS
The experiment in a line: hERG potassium channel whole-cell patch clamp. The class given is cell-based. The conditions noted are these: hERG-HEK293 cells, IKr current. The text has this:
Whole-cell patch clamp technique was used to record the changes of hERG current (IKr) after different concentrations of compounds acted on HEK293 cells (hERG-HEK293 steady-state cells) expressing hERG potassium channels to study the half inhibitory concentration (IC50) of the above compounds on IKr.

Series [6] in a line: Maximum tolerance dose by intragastric administration. The conditions noted are these: ICR, mouse, in vivo, po; mice, single intragastric administration, 14 days observation; read-out: maximum tolerated dose. How it is done:
40 ICR mice, half male and half […], weighing 18 to 20 g, were divided into 4 groups with 10 animals in each group. After 6 hours of fasting, the test samples in each group were taken with sterilized plastic syringe and orally gavaged at a volume of 0.3 mL/10 g. The general physical signs of animals and the death of animals were recorded at 1, 2 and 4 hours after administration. […] The dead animals were dissected to observe whether there were any visible pathological changes in the organs of the animals, and pathological examinations were carried out on suspicious tissues and organs.

Series [7] relates to myeloma cell line RPMI 8226. The experiment in a line: In vitro anti-proliferative activity (CCK8), RPMI 8226. The class given is cell-based. The conditions noted are these: Homo sapiens, RPMI-8226, 48 h, read-out: RPMI 8226 (Myeloma) Inh % in 10 μM.
Setting [8] is: 10 μM, 48 hours, CCK8, class symbol.
Where [9] appears, read: HepG2, 10 μM, 48 hours, CCK8, class symbol.
Where [10] appears, read: A549, 10 μM, 48 hours, CCK8, class symbol.
Setting [11] is: MRC5, 10 μM, 48 hours, CCK8, class symbol.

On to `O=C(NO)c1ccc(CN2CCCCc3ccc(Cl)cc32)cc1` [Compound T-2, 4-((8-chloro-2,3,4,5-tetrahydro-1H-benzo[b]azepin-1-yl)methyl)-N-hydroxybenzamide], for which the figures for the IC50 against HDAC6 and against HDAC1 were 14 nM and 406 nM, respectively. For the same molecule, the inhibition at 10 µM with glioma cell line U-87MG (setting [8]) is 80 to 90%; in series [1] it was 90 to 100%; in series [2] (setting [9]), 90 to 100%; in series [3] (setting [10]), 70 to 80%; in series [4] (setting [11]), under 50%. Further, the “protective effect against HCA-induced neuronal excitotoxicity (cell survival rate)” value (shortened to “protective effect”) in series [5] is on record as “stronger than that of the HDAC6 inhibitor compound Tubastatin A”. At hERG potassium channels, this molecule showed a pIC50 of under 5.00. The MTD at 14 days in series [6] was over 1000 mg/kg.

On to `COc1ccc2c(c1)CCCCN2Cc1ccc(C(=O)NO)cc1` [Compound T-5, 4-((7-methoxy-2,3,4,5-tetrahydro-1H-benzo[b]azepin-1-yl)methyl)-N-hydroxybenzamide], for which the figures for the 50% inhibitory concentration (IC50) on HDAC6 and at HDAC1 were 5.6 nM and 257 nM, respectively. The inhibition at 10 µM in the series with glioma cell line U-87MG (setting [8]) is 80 to 90%; in series [1], 90 to 100%; in series [2] (setting [9]) it was 90 to 100%; in [3] (setting [10]), 70 to 80%; in series [4] (setting [11]) it was under 50%. In addition, in [5], the “protective effect” value was “stronger than that of the HDAC6 inhibitor compound Tubastatin A”. This molecule also gave a pIC50 on hERG potassium channels of under 5.00. In addition, the MTD at 14 days in [6] was over 1000 mg/kg.

For the molecule `O=C(NO)c1ccc(CN2CCCOc3ccccc32)cc1` [Compound T-15, 4-((3,4-dihydrobenzo[b][1,4]oxazepin-5(2H)-yl)methyl)-N-hydroxybenzamide], the 50% inhibitory concentration (IC50) at HDAC6 was found to be 6.2 nM; against HDAC1 it was 367 nM. For the same molecule, the inhibition at 10 µM in the series on glioma cell line U-87MG (setting [8]) was 80 to 90%; in series [1] it was 90 to 100%; in [2] (setting [9]) it was 90 to 100%; in series [3] (setting [10]) it was 50 to 70%; in series [4] (setting [11]) it was under 50%. Moreover, the “protective effect” value in series [5] was “stronger than that of the HDAC6 inhibitor compound Tubastatin A”. Further, the negative logarithm of the IC50 (pIC50) against hERG potassium channels is under 5.00. The MTD at 14 days in series [6] was over 1000 mg/kg.

With `O=C(NO)c1ccc(CN2CCCSc3ccccc32)cc1` [Compound T-16, 4-((3,4-dihydrobenzo[b][1,4]thiazepin-5(2H)-yl)methyl)-N-hydroxybenzamide], the IC50 against HDAC6 was 1.2 nM; against HDAC1, 254 nM. In addition, the inhibition at 10 µM in the series on glioma cell line U-87MG (48 h) is 90 to 100%; in series [2] (HepG2, 48 h), 90 to 100%; in [3] (A549, 48 h), 70 to 80%; in [4] (MRC5, 48 h) it was under 50%; in [7], 90 to 100%. In addition, the “protective effect” value in series [5] was “stronger than that of the HDAC6 inhibitor compound Tubastatin A”. For the same molecule, on hERG potassium channels, the pIC50 is under 5.00. Further, in [6], the MTD at 14 days is over 1000 mg/kg.

Take `O=C(NO)c1ccc(CN2CCCC(O)c3ccccc32)cc1` (centres unmarked) [Compound T-19, 4-((5-hydroxy-2,3,4,5-tetrahydro-1H-benzo[b]azepin-1-yl)methyl)-N-hydroxybenzamide]: the half-inhibitory concentration (IC50) against HDAC6 came out at 6.4 nM; against HDAC1, 442 nM. The inhibition at 10 µM was 90 to 100% in the series on glioma cell line U-87MG (setting [8]); 90 to 100% in [1]; 90 to 100% in series [2] (setting [9]); 50 to 70% in series [3] (setting [10]); under 50% in series [4] (setting [11]). Besides, the “protective effect” value in [5] was “stronger than that of the HDAC6 inhibitor compound Tubastatin A”. This molecule also showed a pIC50 against hERG potassium channels of under 5.00. Moreover, the MTD at 14 days in [6] is over 1000 mg/kg.

In the case of `COc1ccc(C2CC2)c2c1CCN(Cc1ccc(C(=O)NO)cc1)CC2` [Compound T-28, 4-((6-cyclopropyl-9-methoxy-1,2,4,5-tetrahydro-3H-benzo[d]azepin-3-yl)methyl)-N-hydroxybenzamide], the figures for the concentration for half-maximal inhibition (IC50) against HDAC6 and at HDAC1 were 22 nM and over 500 nM, respectively. Also, the inhibition at 10 µM was 80 to 90% with glioma cell line U-87MG (setting [8]); 90 to 100% in [1]; 90 to 100% in [2] (setting [9]); 50 to 70% in [3] (setting [10]); under 50% in series [4] (setting [11]). The “protective effect” value in series [5] is on record as “stronger than that of the HDAC6 inhibitor compound Tubastatin A”. For the same molecule, on hERG potassium channels, the negative logarithm of the IC50 (pIC50) was under 5.00. Further, the MTD at 14 days in series [6] is over 1000 mg/kg.

`O=C(CCCCCCNC(=O)c1cnc(N(c2ccccc2)c2ccccc2)nc1)NO` [Rocilinostat (ACY-1215), Rocilinostat, reference compound]: the inhibition at 10 µM in the series with glioma cell line U-87MG (48 h) stood at 42.1%; in [2] (HepG2, 48 h), 93.4%; in series [3] (A549, 48 h) it was 51.6%; in [4] (MRC5, 48 h) it was 46.7%; in series [7] it was 99.3%.
